Columns and labels:
Assay in all cases: Bliss excess, mean over the matrix (fraction); higher = more synergy
[1] = system: A3-KAW (B-Cell Non-Hodgkin's Lymphoma)
Outline: (§1)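 Cell lines in DMEM/F12 or RPMI with 10% FBS were plated in 1536-well plates, held 24 hours at 37°C, 5% CO2, then given two-drug dose matrices for 72 hours (DMSO typically 0.2%). Viability was read by CellTiter-Glo 2.0 luminescence and scaled as inhibition from 0 (vehicle wells) to 1 (blank wells). Combination Emax is the second-highest inhibition in the matrix; Bliss excess is observed combination effect minus expected EA + EB − EA·EB, EA and EB being single-agent effects.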

[2] = system: A549 (Lung Adenocarcinoma)
Outline: as §1

[3] = system: BICR22 (Oral Cavity Carcinoma)
Outline: as §1

[4] = system: CAPAN-2 (Pancreatic Carcinoma)
Outline: as §1

[5] = system: CCK-81 (Colorectal Carcinoma)
Outline: as §1

[6] = system: COLO-824 (Breast Carcinoma)
Outline: as §1

[7] = system: ECC10 (Gastric Carcinoma)
Outline: as §1

[8] = system: Hs-445 (Non-Cancerous)
Outline: as §1

[9] = system: JSC-1 (B-Cell Non-Hodgkin's Lymphoma)
Outline: as §1

[10] = system: KARPAS-422 (B-Cell Non-Hodgkin's Lymphoma)
Outline: as §1

[11] = system: LN-405 (Glioblastoma)
Outline: as §1

[12] = system: NCI-H1650 (Lung Adenocarcinoma)
Outline: as §1

[13] = system: NCI-H1666 (Lung Adenocarcinoma)
Outline: as §1

[14] = system: NCI-H1693 (Lung Adenocarcinoma)
Outline: as §1

[15] = system: NCI-H2066 (Squamous Cell Lung Carcinoma)
Outline: as §1

[16] = system: NCI-H2141 (Small Cell Lung Carcinoma)
Outline: as §1

[17] = system: SISO (Cervical Carcinoma)
Outline: as §1

[18] = system: SK-MES-1 (Squamous Cell Lung Carcinoma)
Outline: as §1

[19] = system: SK-MG-1 (Low Grade Glioma)
Outline: as §1

[20] = system: U-2-OS (Osteosarcoma)
Outline: as §1

SMILES | Bliss excess [1] | Bliss excess [2] | Bliss excess [3] | Bliss excess [4] | Bliss excess [5] | Bliss excess [6] | Bliss excess [7] | Bliss excess [8] | Bliss excess [9] | Bliss excess [10] | Bliss excess [11] | Bliss excess [12] | Bliss excess [13] | Bliss excess [14] | Bliss excess [15] | Bliss excess [16] | Bliss excess [17] | Bliss excess [18] | Bliss excess [19] | Bliss excess [20]
CC1(C)CCC(CN2CCN(c3ccc(C(=O)NS(=O)(=O)c4ccc(NCC5CCOCC5)c([N+](=O)[O-])c4)c(Oc4cnc5[nH]ccc5c4)c3)CC2)=C(c2ccc(Cl)cc2)C1 [Venetoclax] + CN(C)CCCOc1ccc(-c2ccc3ncc4c(c3c2)n(C2CCOCC2)c(=O)n4C)cn1 [AZD0156] (first compound max 1 µM, 7x7, partner max 1 µM) | -0.0485 | -0.0586 | -0.0381 | -0.0191 | -0.0054 | 0.0588 | 0.0243 | -0.035 | 0.0102 | 0.0398 | -0.0256 | -0.0361 | -0.0085 | -0.0123 | -0.0439 | -0.0183 | 0.0004 | -0.0106 | -0.0527 | -0.0107
CC1(C)CCC(CN2CCN(c3ccc(C(=O)NS(=O)(=O)c4ccc(NCC5CCOCC5)c([N+](=O)[O-])c4)c(Oc4cnc5[nH]ccc5c4)c3)CC2)=C(c2ccc(Cl)cc2)C1 [Venetoclax] + COc1cc(Nc2ncc3c(n2)-c2ccc(Cl)cc2C(c2c(F)cccc2OC)=NC3)ccc1C(=O)O [Alisertib] (first compound max 1 µM, 7x7, partner max 10 µM) | -0.156 | -0.0696 | 0.0052 | -0.0463 | 0.0196 | 0.206 | -0.0281 | 0.374 | 0.0504 | 0.137 | -0.0196 | -0.0515 | -0.0713 | -0.0862 | 0.0077 | 0.171 | 0.0121 | -0.0201 | -0.0126 | 0.0055
CC1(C)CCC(CN2CCN(c3ccc(C(=O)NS(=O)(=O)c4ccc(NCC5CCOCC5)c([N+](=O)[O-])c4)c(Oc4cnc5[nH]ccc5c4)c3)CC2)=C(c2ccc(Cl)cc2)C1 [Venetoclax] + C[C@@H]1COCCN1C2=NC(=NC(=C2)C3(CC3)[S@](=N)(=O)C)C4=C5C=CNC5=NC=C4 [AZD6738] (first compound max 1 µM, 7x7, partner max 10 µM) | 0.008 | -0.0465 | -0.0511 | -0.0439 | -0.0197 | -0.0203 | -0.0132 | 0.0577 | -0.0148 | -0.0055 | -0.016 | -0.0605 | -0.0405 | -0.0147 | -0.0098 | 0.0202 | -0.0309 | -0.0215 | -0.0553 | -0.0469
CC1(C)CCC(CN2CCN(c3ccc(C(=O)NS(=O)(=O)c4ccc(NCC5CCOCC5)c([N+](=O)[O-])c4)c(Oc4cnc5[nH]ccc5c4)c3)CC2)=C(c2ccc(Cl)cc2)C1 [Venetoclax] + C[C@@H](Nc1cc(F)cc(F)c1)c1cc(C(=O)N(C)C)cc2c(=O)cc(N3CCOCC3)oc12 [AZD8186] (first compound max 1 µM, 7x7, partner max 3 µM) | -0.0047 | -0.0073 | -0.0378 | -0.0167 | -0.0287 | 0.139 | 0.0539 | 0.0888 | -0.0218 | 0.0808 | -0.0013 | -0.019 | -0.0705 | -0.034 | -0.0182 | 0.0074 | -0.0268 | 0.0051 | -0.0149 | -0.0269
CC1(C)CCC(CN2CCN(c3ccc(C(=O)NS(=O)(=O)c4ccc(NCC5CCOCC5)c([N+](=O)[O-])c4)c(Oc4cnc5[nH]ccc5c4)c3)CC2)=C(c2ccc(Cl)cc2)C1 [Venetoclax] + Cc1cc2ncnn2cc1Nc1ncc2c(n1)n(C1CCOCC1)c(=O)n2C [AZD7648] (first compound max 1 µM, 7x7, partner max 10 µM) | 0.0185 | -0.0445 | -0.0376 | -0.0083 | -0.0114 | 0.0222 | 0.0065 | -0.0081 | -0.0103 | 0.0157 | 0.015 | -0.0446 | -0.0821 | 0.0211 | -0.0266 | -0.0491 | -0.01 | -0.0002 | -0.0351 | -0.0178
CC1(C)CCC(CN2CCN(c3ccc(C(=O)NS(=O)(=O)c4ccc(NCC5CCOCC5)c([N+](=O)[O-])c4)c(Oc4cnc5[nH]ccc5c4)c3)CC2)=C(c2ccc(Cl)cc2)C1 [Venetoclax] + Cn1cnc2c(F)c(Nc3ccc(Br)cc3Cl)c(C(=O)NOCCO)cc21 [Selumetinib] (first compound max 1 µM, 7x7, partner max 3 µM) | 0.0127 | -0.0401 | -0.0691 | -0.0256 | 0.0338 | 0.0356 | 0.0364 | 0.0401 | -0.0184 | -0.0238 | -0.0598 | -0.0457 | 0.025 | -0.0396 | -0.0074 | -0.0303 | -0.0162 | -0.0572 | -0.0062 | -0.0309
